Assay results published in BindingDB's records for doi:10.1016/S0960-894X(01)80136-0 (1994).
Blank lines part the entries; values can stand above or below the compound they belong to.

Test: Apparent inhibition constant of the FKBP […] isomerase (PPIase) activity

SMILES: CC1(C)COC(=O)CCCCCCCCCCCCCCCOC(=O)C2CCCCN2C(=O)C1=O (stereo not given) [7,7-Dimethyl-icosahydro-9,26-dioxa-4a-aza-benzocyclopentacosene-5,6,10,27-tetraone]
Ki: 11000 µM

SMILES: CC1(C)COC(=O)CCCOC(=O)C2CCCCN2C(=O)C1=O (stereo not given) [7,7-Dimethyl-octahydro-9,14-dioxa-4a-aza-benzocyclotridecene-5,6,10,15-tetraone]
Ki: 2900 µM

SMILES: CC1(C)COC(=O)CCCCCCCCCCC(CCC2CCCCC2)OC(=O)C2CCCCN2C(=O)C1=O (stereo not given) [21-(2-Cyclohexyl-ethyl)-7,7-dimethyl-hexadecahydro-9,22-dioxa-4a-aza-benzocyclohenicosene-5,6,10,23-tetraone]
Ki: 190 µM

Other lines, results leading:

Ki: 30 µM
SMILES: CC1(C)COC(=O)CCCCCCCCCOC(=O)[C@@H]2CCCCN2C(=O)C1=O

Ki: 90 µM
SMILES: CC1(C)COC(=O)CCCCCCCCCOC(=O)C2CCCCN2C(=O)C1=O (stereo not given) [7,7-Dimethyl-tetradecahydro-9,20-dioxa-4a-aza-benzocyclononadecene-5,6,10,21-tetraone]
